≈ marks a conversion by molar mass, not a printed value.
Settings: buffer; pH 7.4; 200.0 µM

| SMILES | solubility kinetic [µg/mL] |
| --- | --- |
| O=C(COC(=O)CCSc1ccc(F)cc1)NCc1ccc(F)cc1 | 26.5 (≈ 72.5 µM) |
| O=C(CSC(=S)N1CCOCC1)c1cc2ccccc2oc1=O | 7.4 (≈ 21.2 µM) |
| COc1ccccc1/C=C/C(=O)OCC(=O)c1cc(C)n(C)c1C | 7.9 (≈ 24.1 µM) |
| Cc1ccccc1Nc1ccc([N+](=O)[O-])cn1 | > 34.4 |
| Cc1ccc(CNC(=O)N2CCN(S(=O)(=O)c3ccccc3)CC2)cc1 | 8.3 (≈ 22.2 µM) |
| CCCCCCCCCCCCN1C(=O)CSC1c1cccnc1 (configuration not stated) | < 0.4 |
| CC(C)NC(=S)N1CCCN(c2ncccc2[N+](=O)[O-])CC1 | > 48.5 |
| Clc1ccc2c(NCc3cccs3)ncnc2c1 | 4.5 (≈ 16.3 µM) |
| CNC(=O)N1c2ccccc2CCc2ccccc21 | > 37.8 |
| O=C(Nc1ccc2c(c1)OCCO2)C(=O)NC1CC1 | 30.8 (≈ 117 µM) |
| O=C(COC(=O)c1ccc(F)cc1F)NCc1ccc2c(c1)OCO2 | 4.9 (≈ 14 µM) |
| CC1CN=C(NC(=O)c2cccc([N+](=O)[O-])c2)S1.Cl (configuration not stated) | 12.5 |
| Cc1nc2cc(NC(=O)Nc3ccccc3Cl)ccc2n1C | 7.4 (≈ 23.5 µM) |
| O=C(NC1CC2CCC1C2)c1ccco1 (configuration not stated) | 26.3 (≈ 128 µM) |
| Cc1ccc(NC(=O)CSc2nncs2)cc1Cl | > 45 |
| CSc1cccc(N2C(=O)C3CCCN3C2=S)c1 (configuration not stated) | 36.2 (≈ 130 µM) |
| COc1ccc(C(=O)NC(=S)N(C)C2CCCCC2)cc1Br | 0.7 (≈ 1.82 µM) |
| Cc1ccc(NC(=O)CCSCCc2ccccn2)cc1 | > 45.1 |
| O=C(Cc1ccc([N+](=O)[O-])cc1)c1c(O)cc(O)cc1O | > 43.4 |
| Cc1nc2ccc(S(=O)(=O)N3CCCCC3)cc2s1 | 21.4 (≈ 72.2 µM) |
| O=C(/C=C/c1ccccc1)OCCN=C1NS(=O)(=O)c2ccccc21 | 8.6 (≈ 24.1 µM) |
| CC(=O)c1ccc(N=C2SCCCN2C(=O)C2CCCCC2)cc1 | 42.2 (≈ 123 µM) |

| SMILES | solubility kinetic [µg/mL] |
| --- | --- |
| c1coc(-c2ccnc(-n3cccc3)n2)c1 | 1.6 (≈ 7.57 µM) |
| CCN(C(=O)CSc1nc2ccc(Cl)cc2[nH]1)C1CCS(=O)(=O)C1 (configuration not stated) | > 58.2 |
| CN1C(=O)C(c2ccccc2[N+](=O)[O-])C(=O)c2ccccc21 (configuration not stated) | > 44.4 |
| CCOc1ncccc1C(=O)OCC(=O)Nc1cc(C(C)(C)C)ccc1OC | 1.5 (≈ 3.88 µM) |
| COc1cc2c(cc1OC)/C(=C/C(=O)c1ccc(C)cc1)NCC2 | 24.8 (≈ 76.7 µM) |
| CCOC(=O)c1ccc(NC(=O)c2cc(=O)[nH]c3ccccc23)cc1 | < 0.4 |
| CCN(CC)c1ccc(C(=O)N/N=C(\C)c2cccnc2)cc1 | > 46.6 |
| O=C(NCCc1ccccc1)c1cnc(Cl)c(Cl)c1 | 11.6 (≈ 39.3 µM) |
| O=C(Nc1nccs1)c1ccc2c(c1)OCO2 | 3 (≈ 12.1 µM) |
| COc1ccc(C(=O)Nc2cc(C)on2)cc1OC | 26.9 (≈ 103 µM) |
| O=C1NC(=O)/C(=C/c2ccccc2Cl)N1 | 17.8 (≈ 80 µM) |
| O=C(Cc1ccc(Cl)cc1)N1CCc2ccccc2C1 | 37.2 (≈ 130 µM) |
| Cc1ccc(NC(=O)C(=O)NCCCN2CCOCC2)c(C)c1 | > 47.9 |
| COc1ccc(Cl)cc1NC(=O)COC(C)=O | > 38.7 |
| COc1ccc(CCNC(=O)c2ccnc(C(C)(C)C)c2)cc1OC | > 51.4 |
| Cc1ccc(S(N)(=O)=O)c(C)c1N1CCCC1=O | > 40.2 |
| O=C(NCc1ccccc1Br)c1ccc2c(c1)OCCO2 | 11.6 (≈ 33.3 µM) |
| Cc1ccc(C)c(S(=O)(=O)N2CCN(C(=O)[C@H](Cc3ccccc3)NC(=O)c3ccco3)CC2)c1 | 18.2 (≈ 36.7 µM) |
| CCOP(=O)(OCC)C(Nc1cccc([N+](=O)[O-])c1)c1ccccc1 (configuration not stated) | 7.8 (≈ 21.4 µM) |
| O=C(Cc1ccsc1)NCc1ccccc1F | > 37.4 |
| CCC(=NC)C1=C(O)CC(c2ccccc2)CC1=O (configuration not stated) | > 38.6 |
| OCc1ccccc1N=Cc1cccnc1 | > 31.8 |

| SMILES | solubility kinetic [µg/mL] |
| --- | --- |
| FC(F)Oc1ccc(-c2c[n+]3c(n2-c2ccccc2)CCCCC3)cc1 | 50.7 |
| O=C(c1ccc([N+](=O)[O-])cc1)N1CCc2ccccc21 | 1 (≈ 3.73 µM) |
| Cc1cccc(NS(=O)(=O)c2ccc3[nH]c(=O)oc3c2)c1C | 41.9 (≈ 132 µM) |
| Cc1c(C#N)c(NC(=O)C(C)C)n(Cc2ccccc2)c1C | 8.1 (≈ 27.4 µM) |
| O=C(COC(=O)c1cc(Cl)ccc1O)NCC1CCCO1 (configuration not stated) | > 47.1 |
| COc1cccc(CNC(=O)c2ccncc2)c1 | 36.3 (≈ 150 µM) |
| S=C(Nc1ccccc1)Nc1ccc(Br)cc1 | 5.6 (≈ 18.2 µM) |
| C/C(=N\Nc1nc(C)cc(C)n1)c1ccc(N2CCOCC2)cc1 | > 48.8 |
| Cc1cc(C)n(-c2cccc(C(=O)O)c2)n1 | > 32.4 |
| OC(c1nc2ccccc2[nH]1)C(O)c1nc2ccccc2[nH]1 (configuration not stated) | > 44.1 |
| COc1ccc(OC)c(Nc2cc(C)c3ccccc3n2)c1 | 1.4 (≈ 4.76 µM) |
| O=C(COC(=O)c1ccco1)NCc1ccc2c(c1)OCO2 | > 45.5 |
| Cc1ccc(/C=C2/SC(=Nc3ccc(F)cc3)NC2=O)s1 | 0.8 (≈ 2.51 µM) |
| Cc1cccc(NC(=O)CCC(=O)c2cccs2)n1 | > 41.2 |
| C=CCn1cnc2c(oc3ccccc32)c1=O | > 33.9 |
| Cc1ccc(CNC(=O)C2CCCC2)cc1 | 27.5 (≈ 127 µM) |
| COC(=O)c1cc(S(=O)(=O)Nc2cccc(-c3cnco3)c2)oc1C | 50.3 (≈ 139 µM) |
| O=c1cc(C(F)(F)F)nc(SCc2cccc3ccccc23)[nH]1 | 7.5 (≈ 22.3 µM) |
| CCOC(=O)C1CCN(C(=O)COC(=O)c2ccccc2OCC)CC1 | > 54.5 |
| CC(=O)c1cn(Cc2ccc(F)cc2)c2ccccc12 | 1.9 (≈ 7.11 µM) |
| Cc1nc([N+](=O)[O-])cn1CC(=O)Nc1ccc(F)c(Cl)c1 | 1.2 (≈ 3.84 µM) |
| Cc1cccnc1NC(=O)c1ccc2c(c1)NC(=O)C(C)S2 (configuration not stated) | > 47 |

| SMILES | solubility kinetic [µg/mL] |
| --- | --- |
| CCOc1cc(/C=C/c2nc3ccccc3c(=O)[nH]2)ccc1O | 32.4 (≈ 105 µM) |
| CCOc1cc(C(=O)Nc2cccnc2)cc(OCC)c1OCC | 47.3 (≈ 143 µM) |
| CCOC(=O)c1cncc(C#CCO)c1 | > 30.8 |
| Cc1ccc(C(=O)N2CCCCC2C(=O)O)o1 (configuration not stated) | > 35.6 |
| C=CCn1c(SCc2ccccc2)nc2c1c(=O)[nH]c(=O)n2C | 25 (≈ 76.1 µM) |
| O=C(NC1CCSc2ccccc21)c1ccccc1Br (configuration not stated) | 8.6 (≈ 24.7 µM) |
| Cc1ccc(NC(=O)CN(C)CC(=O)Nc2ccccc2C#N)cc1 | > 50.5 |
| O=C1/C(=C/c2cccnc2)SC(=S)N1c1ccc(O)cc1 | 0.9 (≈ 2.86 µM) |
| Cc1cccc(Nc2nc(-c3ccc(F)c(C)c3)cs2)n1 | < 0.2 |
| O=C(COc1ncnc2ccccc12)NC1CCCCC1 | > 42.8 |
| Cc1cc(C(=O)COC(=O)/C=C/c2ccco2)c(C)n1C | 12.9 (≈ 44.9 µM) |
| COc1nc(N(C)C)nc(N(C)c2cc(Cl)cc(Cl)c2)n1 | 0.4 (≈ 1.22 µM) |
| Cc1ccccc1/C=C\c1nc(O)c([N+](=O)[O-])c(=O)[nH]1 | > 41 |
| COc1ccc(C(=O)Nc2nc(-c3ccccn3)cs2)cc1S(=O)(=O)N1CCOCC1 | 6.8 (≈ 14.8 µM) |
| C=CCNC(=O)c1ccc(S(=O)(=O)CC)c(Cl)c1Cl | > 48.3 |
| COc1ccc(CCc2nc(-c3cccs3)no2)cc1 | 2.3 (≈ 8.03 µM) |
| COc1cc(C(=S)N2CCCC2)ccc1OCC(N)=O | > 44.2 |
| Cc1cc(C)n2nc(C(=O)N/N=C/c3cn(C)nc3C)nc2n1 | > 46.8 |
| O=C(Nc1cccc(NC(=O)c2cccs2)c1)c1ccc(F)cc1 | < 0.4 |
| Cc1cc(OCC(=O)Nc2ccc3oc(=O)ccc3c2)ccc1Cl | 2.4 (≈ 6.98 µM) |
| Cc1cccc(C)c1N1CCN(c2c(C)cccc2C)CC1 | < 0.3 |
